Reference: PubChem BioAssay AID1963962 (Molecular Pharmacology Branch, DTP, NCI, 2024)

Tested on: 967376-340-R-J2-PDC multicell spheroid viability
Experiment: Anticancer human tumor 967376-340-R-J2-PDC patient-derived colon adenocarcinoma cell line growth inhibition [PI3K]
Details: for IC50: curve of first compound; for viability, T/C: stronger effect = lower value
How it was run: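 Combination activity was assessed by viability in multicellular tumor spheroids carrying HUVEC and MSC components. Agents were tested with PI3K inhibitors from a Cmax-based top dose (or 10 microM) downward in half-log increments.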

[1] = second compound 0.0316 µM, first compound 0.0316 µM
[2] = second compound 0.0316 µM, first compound 0.1 µM
[3] = second compound 0.0316 µM, first compound 0.316 µM
[4] = second compound 0.0316 µM, first compound 1 µM
[5] = second compound 0.0316 µM, first compound 3.16 µM
[6] = second compound 0.0316 µM, first compound 10 µM
[7] = second compound 0.1 µM, first compound 0.0316 µM
[8] = second compound 0.1 µM, first compound 0.1 µM
[9] = second compound 0.1 µM, first compound 0.316 µM
[10] = second compound 0.1 µM, first compound 1 µM
[11] = second compound 0.1 µM, first compound 3.16 µM
[12] = second compound 0.1 µM, first compound 10 µM
[13] = second compound 0.316 µM, first compound 0.0316 µM
[14] = second compound 0.316 µM, first compound 0.1 µM
[15] = second compound 0.316 µM, first compound 0.316 µM
[16] = second compound 0.316 µM, first compound 1 µM
[17] = second compound 0.316 µM, first compound 3.16 µM
[18] = second compound 0.316 µM, first compound 10 µM
[19] = second compound 1 µM, first compound 0.0316 µM
[20] = second compound 1 µM, first compound 0.1 µM
[21] = second compound 1 µM, first compound 0.316 µM
[22] = second compound 1 µM, first compound 1 µM
[23] = second compound 1 µM, first compound 3.16 µM
[24] = second compound 1 µM, first compound 10 µM
[25] = second compound 3.16 µM, first compound 0.0316 µM
[26] = second compound 3.16 µM, first compound 0.1 µM
[27] = second compound 3.16 µM, first compound 0.316 µM
[28] = second compound 3.16 µM, first compound 1 µM
[29] = second compound 3.16 µM, first compound 3.16 µM
[30] = second compound 3.16 µM, first compound 10 µM
[31] = second compound 10 µM, first compound 0.0316 µM
[32] = second compound 10 µM, first compound 0.1 µM
[33] = second compound 10 µM, first compound 0.316 µM
[34] = second compound 10 µM, first compound 1 µM
[35] = second compound 10 µM, first compound 3.16 µM
[36] = second compound 10 µM, first compound 10 µM
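Note: spheroids exposed to agents for 7 days before read-out.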
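Throughout, for viability, T/C: luminescence used as surrogate of cell viability.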

CC1(C)CCC(CN2CCN(c3ccc(C(=O)NS(=O)(=O)c4ccc(NCC5CCOCC5)c([N+](=O)[O-])c4)c(Oc4cnc5[nH]ccc5c4)c3)CC2)=C(c2ccc(Cl)cc2)C1 + Cc1nc(NC(=O)N2CCCC2C(N)=O)sc1-c1ccnc(C(C)(C)C(F)(F)F)c1
IC50 (second compound 0.0316 µM): > 10 µM | IC50 (second compound 0.1 µM): 8.83 µM | IC50 (second compound 0.316 µM): 8.52 µM | IC50 (second compound 1 µM): > 10 µM | IC50 (second compound 3.16 µM): 4.67 µM | IC50 (second compound 10 µM): 2.63 µM | viability, T/C [1]: 103% | viability, T/C [2]: 91.3% | viability, T/C [3]: 88.8% | viability, T/C [4]: 86% | viability, T/C [5]: 104% | viability, T/C [6]: 55.1% | viability, T/C [7]: 88.9% | viability, T/C [8]: 83.6% | viability, T/C [9]: 86.4% | viability, T/C [10]: 86.8% | viability, T/C [11]: 77.8% | viability, T/C [12]: 46.5% | viability, T/C [13]: 88.2% | viability, T/C [14]: 76.8% | viability, T/C [15]: 73% | viability, T/C [16]: 66.1% | viability, T/C [17]: 75.9% | viability, T/C [18]: 46% | viability, T/C [19]: 86.1% | viability, T/C [20]: 73.3% | viability, T/C [21]: 72.1% | viability, T/C [22]: 61.5% | viability, T/C [23]: 69.2% | viability, T/C [24]: 52.3% | viability, T/C [25]: 57.1% | viability, T/C [26]: 71.8% | viability, T/C [27]: 63% | viability, T/C [28]: 60.5% | viability, T/C [29]: 59% | viability, T/C [30]: 33.4% | viability, T/C [31]: 63.9% | viability, T/C [32]: 50.3% | viability, T/C [33]: 62.7% | viability, T/C [34]: 48.8% | viability, T/C [35]: 53% | viability, T/C [36]: 38.6%

C[C@@H](NC(=O)c1ncnc(N)c1Cl)c1ncc(C(=O)Nc2cc(C(F)(F)F)c(Cl)cn2)s1 + Cc1nc(NC(=O)N2CCCC2C(N)=O)sc1-c1ccnc(C(C)(C)C(F)(F)F)c1
IC50 (second compound 0.0316 µM): > 10 µM | IC50 (second compound 0.1 µM): > 10 µM | IC50 (second compound 0.316 µM): > 10 µM | IC50 (second compound 1 µM): > 10 µM | IC50 (second compound 3.16 µM): > 10 µM | IC50 (second compound 10 µM): > 10 µM | viability, T/C [1]: 87.1% | viability, T/C [2]: 88.3% | viability, T/C [3]: 84.6% | viability, T/C [4]: 105% | viability, T/C [5]: 94.2% | viability, T/C [6]: 100% | viability, T/C [7]: 105% | viability, T/C [8]: 77.1% | viability, T/C [9]: 85.4% | viability, T/C [10]: 96.7% | viability, T/C [11]: 98.3% | viability, T/C [12]: 97.6% | viability, T/C [13]: 65.6% | viability, T/C [14]: 100% | viability, T/C [15]: 68% | viability, T/C [16]: 99.7% | viability, T/C [17]: 89.7% | viability, T/C [18]: 78.7% | viability, T/C [19]: 72.8% | viability, T/C [20]: 80.4% | viability, T/C [21]: 79.6% | viability, T/C [22]: 70.1% | viability, T/C [23]: 96.6% | viability, T/C [24]: 76% | viability, T/C [25]: 55% | viability, T/C [26]: 71% | viability, T/C [27]: 71.9% | viability, T/C [28]: 74% | viability, T/C [29]: 69.4% | viability, T/C [30]: 68.2% | viability, T/C [31]: 56.4% | viability, T/C [32]: 59.9% | viability, T/C [33]: 62.1% | viability, T/C [34]: 54% | viability, T/C [35]: 61.8% | viability, T/C [36]: 54.5%

Cn1ncnc1[C@H]1c2n[nH]c(=O)c3cc(F)cc(c23)N[C@@H]1c1ccc(F)cc1 + Cc1nc(NC(=O)N2CCCC2C(N)=O)sc1-c1ccnc(C(C)(C)C(F)(F)F)c1
IC50 (second compound 0.0316 µM): > 0.1 µM | IC50 (second compound 0.1 µM): > 0.1 µM | IC50 (second compound 0.316 µM): > 0.1 µM | IC50 (second compound 1 µM): > 0.1 µM | IC50 (second compound 3.16 µM): > 0.1 µM | IC50 (second compound 10 µM): 0.0218 µM | viability, T/C (second compound 0.0316 µM, first compound 0.000316 µM): 85.9% | viability, T/C (second compound 0.0316 µM, first compound 0.001 µM): 84.8% | viability, T/C (second compound 0.0316 µM, first compound 0.00316 µM): 83% | viability, T/C (second compound 0.0316 µM, first compound 0.01 µM): 79.5% | viability, T/C [1]: 109% | viability, T/C [2]: 86.2% | viability, T/C (second compound 0.1 µM, first compound 0.000316 µM): 104% | viability, T/C (second compound 0.1 µM, first compound 0.001 µM): 69.8% | viability, T/C (second compound 0.1 µM, first compound 0.00316 µM): 77.9% | viability, T/C (second compound 0.1 µM, first compound 0.01 µM): 92.8% | viability, T/C [7]: 82.6% | viability, T/C [8]: 82.1% | viability, T/C (second compound 0.316 µM, first compound 0.000316 µM): 70.7% | viability, T/C (second compound 0.316 µM, first compound 0.001 µM): 69% | viability, T/C (second compound 0.316 µM, first compound 0.00316 µM): 50.6% | viability, T/C (second compound 0.316 µM, first compound 0.01 µM): 76.6% | viability, T/C [13]: 71.3% | viability, T/C [14]: 67.8% | viability, T/C (second compound 1 µM, first compound 0.000316 µM): 58.9% | viability, T/C (second compound 1 µM, first compound 0.001 µM): 71.8% | viability, T/C (second compound 1 µM, first compound 0.00316 µM): 71.8% | viability, T/C (second compound 1 µM, first compound 0.01 µM): 67% | viability, T/C [19]: 55.1% | viability, T/C [20]: 60.3% | viability, T/C (second compound 3.16 µM, first compound 0.000316 µM): 51% | viability, T/C (second compound 3.16 µM, first compound 0.001 µM): 65.9% | viability, T/C (second compound 3.16 µM, first compound 0.00316 µM): 65.5% | viability, T/C (second compound 3.16 µM, first compound 0.01 µM): 68.9% | viability, T/C [25]: 62.4% | viability, T/C [26]: 56% | viability, T/C (second compound 10 µM, first compound 0.000316 µM): 48.2% | viability, T/C (second compound 10 µM, first compound 0.001 µM): 71.1% | viability, T/C (second compound 10 µM, first compound 0.00316 µM): 51.5% | viability, T/C (second compound 10 µM, first compound 0.01 µM): 38.8% | viability, T/C [31]: 50.8% | viability, T/C [32]: 51.7%
